Results from patent publication US20090105292A9, “Glucocorticoid Receptor Modulator Compounds and Methods” (LIGAND PHARMACEUTICALS INCORPORATED, priority 2004, published 2009).

What follows are molecules tested against T1, human glucocorticoid receptor protein (GR) (Homo sapiens, UniProt P04150) (assay: Glucocorticoid receptor binding assay ([3H]dexamethasone competition, GR lysate)). Conditions: not given.
T1 construct: made in house; host or cells: Spodoptera frugiperda Sf21 insect cells (baculovirus)
T1 sequence (P04150 1-777): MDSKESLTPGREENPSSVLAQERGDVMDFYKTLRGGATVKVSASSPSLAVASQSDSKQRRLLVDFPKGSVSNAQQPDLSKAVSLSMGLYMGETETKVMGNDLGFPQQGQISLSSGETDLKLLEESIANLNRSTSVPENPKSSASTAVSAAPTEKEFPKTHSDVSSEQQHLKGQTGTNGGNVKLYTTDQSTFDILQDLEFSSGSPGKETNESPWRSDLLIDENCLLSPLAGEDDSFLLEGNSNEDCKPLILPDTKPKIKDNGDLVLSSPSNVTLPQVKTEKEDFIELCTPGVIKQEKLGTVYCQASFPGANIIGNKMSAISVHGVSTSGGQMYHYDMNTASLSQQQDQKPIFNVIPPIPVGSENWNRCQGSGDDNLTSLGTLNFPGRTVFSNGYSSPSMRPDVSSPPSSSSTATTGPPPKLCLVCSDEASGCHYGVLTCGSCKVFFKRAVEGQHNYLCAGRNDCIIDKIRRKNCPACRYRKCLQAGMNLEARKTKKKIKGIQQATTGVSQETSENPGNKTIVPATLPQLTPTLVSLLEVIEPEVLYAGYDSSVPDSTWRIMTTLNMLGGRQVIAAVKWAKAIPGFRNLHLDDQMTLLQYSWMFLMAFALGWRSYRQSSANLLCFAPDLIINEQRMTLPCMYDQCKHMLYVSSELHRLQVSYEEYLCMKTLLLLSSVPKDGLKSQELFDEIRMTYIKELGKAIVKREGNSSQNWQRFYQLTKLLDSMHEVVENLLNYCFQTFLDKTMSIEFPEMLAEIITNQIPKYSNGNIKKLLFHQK
Experimental: A baculovirus expression plasmid containing cDNA encoding the human glucocorticoid receptor protein (GR) was prepared using standard techniques. […] That expression plasmid was co-transfected together with wild type Autographa californica multiple nuclear polyhedrosis virus DNA into Spodopter frugiperda-21 (Sf-21) cells to generate recombinant virus containing GR cDNA. See e.g., O'Reilly, D. R., Miller, L. K., Luckow, V. A., Regulation of expression of a baculovirus ecdysteroid UDP glucosyltransferase gene. […] That recombinant virus containing GR cDNA was collected.
A suspension culture of uninfected Sf21 cells was grown to a density of 1.2×10^6 cells/ml and then infected with the recombinant virus containing GR cDNA at a multiplicity of infection of 2. Those infected Sf21 cells were incubated for 48 hours and then collected by centrifugation at 1000×g for 10 minutes at 4° C. The resulting cell pellets were resuspended in lysis buffer (50 mM Potassium Phosphate buffer, pH 7.0, 10 mM Monothioglycerol, 5 mM DTT, 20 mM Sodium Molybdate, 1 mM PMSF, 1 μg/mL aprotinin, and 10 μg/mL leupeptin) and incubated for 15 minutes on ice. Those resuspended cell pellets were homogenized using a Dounce homogenizer and a B pestle. A volume of 2 M KCl was added to the homogenized cell pellets to a final concentration of 0.4 M. The resulting GR lysates were centrifuged at 100,000×g for 60 min at 4° C. and stored for use in binding assays.
Binding assay samples were prepared in separate mini-tubes in a 96-well format at 4° C. Each binding assay sample was prepared in a volume of 250 μL of Assay Buffer (10% glycerol, 25 mM sodium phosphate, 10 mM potassium fluoride, 10 mM sodium molybdate, 0.25 mM CHAPS, 2 mM DTT and 1 mM EDTA, (adjusted to pH 7.5)) containing 50 μg of GR lysate; 2-4 nM of [^3H]dexamethasone at 84 Ci/mmol; and either a reference compound or a test compound. […] Each reference compound and test compound was assayed at varying concentrations, ranging from 0 to 10^−5 M. Each concentration of each reference compound and each test compound was assayed in triplicate. The assay samples were incubated for 16 hours at 4° C.
The assay samples were then centrifuged and the supernatants were discarded. The resulting pellets were washed twice with assay buffer lacking DTT. Radioactivity in counts per minute (CPM) of each washed pellet was determined by liquid scintillation counter (MicroBeta™, Wallach).
Specific binding for a particular sample was calculated using the equation: (Sample CPM)−(Average Non-specific CPM)
Average Non-specific CPM was defined as the amount of radioactivity from samples containing an excess (i.e. 1000 nM) of unlabeled dexamethasone. […] Ki values were determined using the Cheng-Prusoff equation using a previously determined Kd value for dexamethasone: Ki=IC50/(1+[L]/Kd)
[L]=concentration of labeled dexamethasone
Kd=dissociation constant of labeled dexamethasone
`COc1c(O)ccc2c1-c1ccc3c(c1/C(=C/c1sccc1C(=O)N1CCC(=O)CC1)O2)C(C)=CC(C)(C)N3` [Compound 252, (Z)-5-(2′-(3′-(4″-Oxo-piperidinecarbonyl)thienylmethylidene))1,2-dihydro-9-hydroxy-10-methoxy-2,2,4-trimethyl-5H-chromeno[3,4-f]quinoline] was tested, and the Ki was 1 to 2 nM.
`COc1c(O)ccc2c1-c1ccc3c(c1/C(=C/c1cccc(C(F)(F)F)c1)O2)C(C)=CC(C)(C)N3` [Compound 11, (Z)-5-(3′-trifluoromethylbenzylidene)-1,2-dihydro-9-hydroxy-10-methoxy-2,2,4-trimethyl-5H-chromeno[3,4-f]quinoline] showed a Ki of 1 to 2 nM.

Same assay, conditions: competition with 2-4 nM [3H]dexamethasone, 16 hours at 4° C., Cheng-Prusoff; read-out: Ki
`COc1c(O)ccc2c1-c1ccc3c(c1/C(=C/c1cc(F)ccc1C)O2)C(C)=CC(C)(C)N3` [Compound 37, (Z)-5-(5′-fluoro-2′-methylbenzylidene)-1,2-dihydro-9-hydroxy-10-methoxy-2,2,4-trimethyl-5H-chromeno[3,4-f]quinoline] gave a Ki of less than 1 nM.
For `C=CCO/N=C(\C)c1ccsc1/C=C1\Oc2ccc(O)c(OC)c2-c2ccc3c(c21)C(C)=CC(C)(C)N3` [Compound 178, (Z)-5-(2′-(3′-((E)-1″-Allyloxyiminoethyl)thienylmethylidene))1,2-dihydro-9-hydroxy-10-methoxy-2,2,4-trimethyl-5H-chromeno[3,4-f]quinoline], the Ki was 1 to 2 nM.
Work on `COc1c(O)ccc2c1-c1ccc3c(c1/C(=C/c1sccc1C(=O)N(C)C)O2)C(C)=CC(C)(C)N3` [Compound 132, (Z)-5-(2′-(3′-(dimethylaminocarbonyl)thienylmethylidene))-1,2-dihydro-9-hydroxy-10-methoxy-2,2,4-trimethyl-5H-chromeno[3,4-f]quinoline] yielded a Ki of 1 to 2 nM.
`COc1c(O)ccc2c1-c1ccc3c(c1/C(=C/c1cccc(C)c1C(=O)N1CCCC1)O2)C(C)=CC(C)(C)N3` [Compound 154, (Z)-5-(3′-Methyl-2′-(pyrrolidinecarbonyl)benzylidene)1,2-dihydro-9-hydroxy-10-methoxy-2,2,4-trimethyl-5H-chromeno[3,4-f]quinoline] gave a Ki greater than 3 nM.
With `COc1c(O)ccc2c1-c1ccc3c(c1/C(=C/c1cccc4ccccc14)O2)C(C)=CC(C)(C)N3` [Compound 111, (Z)-5-(1′-naphthylmethylidene)-1,2-dihydro-9-hydroxy-10-methoxy-2,2,4-trimethyl-5H-chromeno[3,4-f]quinoline] the Ki was greater than 3 nM.
`COc1c(O)ccc2c1-c1ccc3c(c1/C(=C/c1ccccc1C#N)O2)C(C)=CC(C)(C)N3` [Compound 107, (Z)-5-(2′-cyanobenzylidene)-1,2-dihydro-9-hydroxy-10-methoxy-2,2,4-trimethyl-5H-chromeno[3,4-f]quinoline] showed a Ki of less than 1 nM.
`COc1cccc(/C=C2\Oc3ccc(O)c(OC)c3-c3ccc4c(c32)C(C)=CC(C)(C)N4)c1` [Compound 15, (Z)-5-(3′-methoxybenzylidene)-1,2-dihydro-9-hydroxy-10-methoxy-2,2,4-trimethyl-5H-chromeno[3,4-f]quinoline] gave a Ki of less than 1 nM.
Work on `COc1c(O)ccc2c1-c1ccc3c(c1/C(=C/c1sccc1CO)O2)C(C)=CC(C)(C)N3` [Compound 157, (Z)-5-(2′-(3′-Hydroxymethylthienylmethylidene))1,2-dihydro-9-hydroxy-10-methoxy-2,2,4-trimethyl-5H-chromeno[3,4-f]quinoline] yielded a Ki of less than 1 nM.
For `C=CCO/N=C(/C)c1ccsc1/C=C1\Oc2ccc(O)c(OC)c2-c2ccc3c(c21)C(C)=CC(C)(C)N3` [Compound 179, (Z)-5-(2′-(3′-((Z)-1″-Allyloxyiminoethyl)thienylmethylidene))1,2-dihydro-9-hydroxy-10-methoxy-2,2,4-trimethyl-5H-chromeno[3,4-f]quinoline], the Ki was 1 to 2 nM.
`COc1c(O)ccc2c1-c1ccc3c(c1/C(=C/c1sccc1CNC1CC1)O2)C(C)=CC(C)(C)N3` [Compound 222, (Z)-5-(2′-(3′-(Cyclopropylaminomethyl)thienylmethylidene))1,2-dihydro-9-hydroxy-10-methoxy-2,2,4-trimethyl-5H-chromeno[3,4-f]quinoline] was tested, and the Ki was 2 to 3 nM.
With `C=CCC(O)c1ccsc1C=C1Oc2ccc(O)c(OC)c2-c2ccc3c(c21)C(C)=CC(C)(C)N3` (single isomer, unassigned; (+)) [Compound 200, (+)-(Z)-5-(2′-(3′-(1″-Hydroxybut-3″-enyl)thienylmethylidene))1,2-dihydro-9-hydroxy-10-methoxy-2,2,4-trimethyl-5H-chromeno[3,4-f]quinoline] the Ki was 1 to 2 nM.
Molecule `CC#CCOCc1ccsc1/C=C1\Oc2ccc(O)c(OC)c2-c2ccc3c(c21)C(C)=CC(C)(C)N3` [Compound 237, (Z)-5-(2′-(3′-(But-2″-ynloxymethyl)thienylmethylidene))1,2-dihydro-9-hydroxy-10-methoxy-2,2,4-trimethyl-5H-chromeno[3,4-f]quinoline] has a Ki of 1 to 2 nM.
`C=CCC(O)c1ccsc1C=C1Oc2ccc(O)c(OC)c2-c2ccc3c(c21)C(C)=CC(C)(C)N3` (single isomer, unassigned; (-)) [Compound 201, (−)-(Z)-5-(2′-(3′-(1″-Hydroxybut-3″-enyl)thienylmethylidene))1,2-dihydro-9-hydroxy-10-methoxy-2,2,4-trimethyl-5H-chromeno[3,4-f]quinoline] showed a Ki of 1 to 2 nM.
For `COc1c(O)ccc2c1-c1ccc3c(c1/C(=C/c1cccc(OCCF)c1)O2)C(C)=CC(C)(C)N3` [Compound 86, (Z)-5-(3′-(2″-fluoroethoxy)benzylidene)-1,2-dihydro-9-hydroxy-10-methoxy-2,2,4-trimethyl-5H-chromeno[3,4-f]quinoline], the Ki was 1 to 2 nM.
Molecule `COc1c(O)ccc2c1-c1ccc3c(c1/C(=C/c1cc(Cl)ccc1Cl)O2)C(C)=CC(C)(C)N3` [Compound 14, (Z)-5-(2′,5′-dichlorobenzylidene)-1,2-dihydro-9-hydroxy-10-methoxy-2,2,4-trimethyl-5H-chromeno[3,4-f]quinoline] has a Ki of 2 to 3 nM.
`COc1c(O)ccc2c1-c1ccc3c(c1/C(=C/c1sccc1C(=O)c1ccsc1)O2)C(C)=CC(C)(C)N3` [Compound 215, (Z)-5-(2′-(3′-(Thien-3″-ylcarbonyl)thienylmethylidene))1,2-dihydro-9-hydroxy-10-methoxy-2,2,4-trimethyl-5H-chromeno[3,4-f]quinoline] was tested, and the Ki was 1 to 2 nM.
Molecule `CCNC(=O)c1ccsc1/C=C1\Oc2ccc(O)c(OC)c2-c2ccc3c(c21)C(C)=CC(C)(C)N3` [Compound 249, (Z)-5-(2′-(3′-Ethylcarbamoylthienylmethylidene))1,2-dihydro-9-hydroxy-10-methoxy-2,2,4-trimethyl-5H-chromeno[3,4-f]quinoline] has a Ki of 1 to 2 nM.
Work on `COc1c(O)ccc2c1-c1ccc3c(c1/C(=C/c1sccc1C(O)C(F)(F)F)O2)C(C)=CC(C)(C)N3` (racemic) [Compound 202, (±)-(Z)-5-(2′-(3′-(1″-Hydroxy-2″,2″,2″-trifluoroethyl)thienylmethylidene))1,2-dihydro-9-hydroxy-10-methoxy-2,2,4-trimethyl-5H-chromeno[3,4-f]quinoline] yielded a Ki of 1 to 2 nM.
